The record followed here is patent US20260256741A1, “ANTICANCER MALEIMIDE DERIVATIVES FOR USE WITH IMMUNE CHECKPOINT BLOCKADE” (BROWN UNIVERSITY, priority 2022, published 2026).

What all share (format): cell-based, human
For one assay, the system named is HT-29 GFP+ cells. The experiment in a line: Single-color GFP+ immune cell co-culture, HT-29. The settings on record: 48 hours. As for the experimental part:
50,000 HT-29 or HCT 116 cells were seeded in a 12-well tissue culture plate and allowed to adhere overnight. They were then transduced with lentivirus containing the plasmid pLenti_CMV_GFP_Hygro [pLenti CMV GFP Hygro (656-4) was a gift from Eric Campeau & Paul Kaufman (Addgene viral prep #17446-LV; RRID: Addgene_17446)] at a multiplicity of infection of 10 with 8 μg/mL polybrene (hexadimethrine bromide [Cat #107689, Sigma Aldrich, St. Louis, MO, USA) for 24 hours before washing with PBS and replacing with fresh medium (49). The cells were then sorted for GFP-positivity using a BD FACSAria™ III Cell Sorter (RRID: SCR_016695).
5000 HT-29 GFP+ or HCT 116 GFP+ cells were plated per well in a clear-bottom, black-walled 96-well tissue culture plate and were allowed to adhere overnight. Cells were subsequently treated with DMSO, 5 μM elraglusib, and/or 5000 TALL-104 or NK-92 cells (for an effector-to-tumor ratio of 1:1) for 48 hours. Nine images were taken per well at 10× magnification using a Molecular Devices ImageXpress® Confocal HT.ai High-Content Imaging System and quantified for the number of GFP+ objects using the MetaXpress (RRID: SCR_016654) software (Molecular Devices, San Jose, CA, USA). 40× Images were also taken at 24 hours for representative images of cellular morphology changes. Statistical analysis was done using GraphPad Prism 9 (RRID: SCR_002798).

In another assay the test system is HT-29 CRC cells. The experiment in a line: Western blot analysis of HT-29 CRC cells. The procedure: Recombinant Human TNF-α (Cat #300-01A, PeproTech, Rocky Hill, NJ, USA) and Recombinant Human IFN-γ (Cat #300-02, Peprotech, Rocky Hill, NJ, USA) were purchased for use in western blot analysis while rhTRAIL was generated in-house. Kim et al., J Biol Chem., 279(38):40044-52 (2004).
Cells were plated in a 6-well plate and incubated overnight before the spent media was replaced with drugged media. Drug treatment lasted for indicated durations. Protein was extracted using radioimmunoprecipitation (RIPA) assay buffer (Cat #R0278, Sigma-Aldrich, St. Louis, MO) containing cOmplete™, Mini, EDTA-free Protease Inhibitor Cocktail (Cat #4693159001, Roche, Basel, Switzerland) from sub-confluent cells. Denaturing sample buffer was added, samples were boiled at 95 degrees for 10 minutes, and an equal amount of protein lysate was electrophoresed through NuPAGE™ 4 to 12%, Bis-Tris, 1.5 mm, Mini Protein Gels (Invitrogen, Waltham, MA) then transferred to PVDF membranes. The PVDF membrane was blocked with 5% non-fat milk (Sigma-Aldrich, St. Louis, MO) in 1×TTBS. Primary antibodies were incubated with the transferred PVDF membrane in blocking buffer at 4° C. overnight. Secondary antibodies used included Goat anti-Rabbit IgG (H+L) Secondary Antibody, HRP (Cat #31460, Invitrogen, Waltham, MA), and Goat anti-Mouse IgG (H+L) Secondary Antibody, HRP (Cat #31430, Invitrogen, Waltham, MA). Signal was detected using Pierce™ ECL Western Blotting Substrate (Cat #32106, Thermo Scientific, Waltham, MA, USA) and a Syngene Imaging System (RRID: SCR_015770).
On the technique in general: A western blot detects proteins with antibodies after separation by electrophoresis.

The test system of assay [1] is tumor cells (HCT-116, HT-29). The experiment in a line: Cytokine profiling of tumor cell culture supernatant (Luminex 200). Conditions: 48 hours. As for the experimental part:
Cells were plated at 3.5×10^4 cells in a 48-well plate (Thermo Fisher Scientific, Waltham, MA, USA) in complete medium and incubated at 37° C. with 5% CO2. At 24 hours after plating, almost all the tumor cells were adherent to the bottom of the flask and the complete medium was replaced with the drug-containing medium. Subsequently, the culture supernatants were collected after 48 hours of incubation and were frozen at −80° C. until the measurement of cytokines was performed. On the day of analysis, samples were thawed and centrifuged to remove cellular debris.
Human cell line culture supernatants were analyzed using an R&D systems Human Premixed Multi-Analyte Kit (R&D Systems, Inc., Minneapolis, MN, USA) and a Luminex 200 (RRID: SCR_018025) Instrument (LX200-XPON-RUO, Luminex Corporation, Austin, TX, USA) according to the manufacturer's instructions. Sample levels of TNF-α, 4-1BB/TNFRSF9/CD137, IL-8/CXCL8, Ferritin, IFN-β, IL-10, CCL2/JE/MCP-1, VEGF, CXCL13/BLC/BCA-1, IFN-γ, CCL20/MIP-3 α, CCL3/MIP-1 α, CCL22/MDC, CCL4/MIP-1 β, Fas Ligand/TNFSF6, IL-17/IL-17A, IL-2, BAFF/BLyS/TNFSF13B, GM-CSF, CXCL5/ENA-78, TRANCE/TNFSF11/RANK L, CXCL9/MIG, G-CSF, IFN-γ R1/CD119, VEGFR3/Flt-4, C-Reactive Protein/CRP, CXCL11/I-TAC, IL-21, CXCL14/BRAK, IL-6, Fas/TNFRSF6/CD95, TRAIL R3/TNFRSF10C, IL-4, CCL5/RANTES, PD-L1/B7-H1, CCL7/MCP-3/MARC, Chitinase 3-like 1, CXCL10/IP-10/CRG-2, IL-1 β/IL-1F2, IL-7, Prolactin, CCL8/MCP-2, TRAIL R2/TNFRSF10B, M-CSF, IL-15, Granzyme B, IFN-α, TREM-1, IL-12/IL-23 p40, TRAIL/TNFSF10, CCL11/Eotaxin, and IL-18/IL-1F4. Quantitative analysis with 6 standards and a minimum of 50 counts per bead region was used with the Luminex to generate analyte values reported as picograms/milliliter (pg/mL). Sample concentrations less than the lower limit of detection for each particular analyte were recoded as the lower limit value divided by ten. Sample concentrations above the upper limit of detection for a particular analyte were recoded as the upper limit of detection.

The mark [2] stands for this setting: especially at later timepoints (48, 72 hr).

Regarding `Cn1cc(C2=C(c3coc4ccc(F)cc34)C(=O)NC2=O)c2cc3c(cc21)OCO3` [elraglusib, 3-(5-fluorobenzofuran-3-yl)-4-(5-methyl-5H-[1,3]dioxolo[4,5-f]indol-7-yl)-1H-pyrrole-2,5-dione], the tumor cell death result with HT-29 GFP+ cells (5 μM elraglusib and NK-92 vs immune cell only and DMSO only) was “increased tumor cell death”. In addition, in the assay with HT-29 GFP+ cells (5 μM elraglusib and TALL-104 vs drug-only or T cell-only), the tumor cell death result is “increased tumor cell death”. In addition, the “NF-κB p65 expression” value in the assay on HT-29 CRC cells (as the 0-72 hour time-course progressed) is listed as “decreased expression”. The PD-L1 expression entry in the assay on HT-29 CRC cells (as the treatment duration increased (0-72 hours)) is recorded as “increases in PD-L1 expression”. Moreover, in the assay with HT-29 CRC cells (setting [2]), the Bcl-2 protein expression entry is given as “decreases in protein expression” and the Survivin protein expression entry is “decreases in protein expression”. Moreover, the “cleaved PARP (cPARP)” value in the assay with HT-29 CRC cells (low dose as in co-culture assays, until the 48-hour timepoint of 72-hour timecourse) is “little to no cleaved PARP”. In assay [1] (1 μM or 5 μM), the CCL5/RANTES secretion entry is recorded as “downregulated post-treatment”, the DcR3 secretion result is recorded as “downregulated post-treatment”, the Fas secretion entry is “downregulated post-treatment” and the “soluble PD-L1 (sPD-L1) secretion” value was “downregulated post-treatment”. Further, in assay [1] (both cell lines, 1 μM and 5 μM), the GDF-15 secretion result is given as “decreased secretion”, the GM-CSF secretion entry is listed as “decreased secretion” and the VEGF secretion result is reported as “decreased secretion”.
